This data set is described as follows: wn = mass fraction of the nth substance listed. The note with it: 100 kPa, Liquid, Vibrating tube method, w1 = 0.5821.

± gives the expanded uncertainty stated by the source.

What is called mass density is mass per unit of volume.

With `[Cl-].[Cl-].[Zn+2]` [zinc chloride] + O, the mass density was found to be 1702.7 ± 6.9 kg/m3 (288.15 K), 1692.5 ± 6.9 kg/m3 (298.15 K) and 1666.6 ± 6.7 kg/m3 (323.15 K).
